Test [1] concerns Enteropathogenic E. coli (EPEC) strain E2348/69. The test is described as follows: Growth curve of antibiotic resistant EPEC with gentamicin and Fe complex. The class given is cell-based, Escherichia coli. How it is done:
The impact on the growth curve of antibiotic resistant Enteropathogenic E. coli (EPEC) strain E2348/69 (genotype Wild Type EPEC O17:H6) when grown in the presence of (i) gentamicin (1.25 μM), (ii) Fe-Tyr (100 μM), (iii) gentamicin (1.25 μM) and Fe-Tyr (1.25 μM), and (iv) a control with no gentamicin or Fe-Tyr present was determined.
The impact on the growth curve of antibiotic resistant Enteropathogenic E. coli (EPEC) strain E2348/69 (genotype Wild Type EPEC O17:H6) when grown in the presence of a fixed concentration of gentamicin (1.25 μM) and an increasing concentration of FeQ versus the strain grown in the presence of only FeQ or only gentamicin, was determined.
The impact on the growth curve of antibiotic resistant Enteropathogenic E. coli (EPEC) strain E2348/69 (genotype Wild Type EPEC O17:H6) when grown in the presence of a fixed concentration of gentamicin (1.25 μM) and an increasing concentration of FeDOPA versus the strain grown in the presence of only FeDOPA or only gentamicin, was determined.

The subject of test [2] is Enteropathogenic E. coli (EPEC) E2348/69. The test is described as follows: Crystal violet assay of attachment to plastic wells. The class given is cell-based, Escherichia coli. The conditions noted are these: FeDOPA 68-250 μM; 48 hours at 37° C. How it is done:
Enteropathogenic E. coli (EPEC) E2348/69 were grown in wells for 48 hours at 37° C. in the presence of FeQ (100 μM), and in the absence of FeQ (as control). After 48 hours, the wells were washed in order to remove suspended cells. Crystal violet was then added to each well. The wells were then washed to remove excess dye. A mixture of acetone/ethanol was then added to the wells to re-suspend any cells attached to the plastic surface of the wells, and dissolve any dye present. The presence of dye in each well was then quantified by measuring the O.D. at 570 nm.
Enteropathogenic E. coli (EPEC) E2348/69 were grown in wells for 48 hours at 37° C. in the presence of FeDOPA (10-250 μM), and in the absence of FeDOPA (as control). After 48 hours, the wells were washed in order to remove suspended cells. Crystal violet was then added to each well. The wells were then washed to remove excess dye. A mixture of acetone/ethanol was then added to the wells to re-suspend any cells attached to the plastic surface of the wells, and dissolve any dye present. The presence of dye in each well was then quantified by measuring the O.D. at 570 nm.

The next test relates to EPEC-AcsrA. Nature of the test: BioFlux system, disruption of a mature biofilm. The class given is cell-based, Escherichia coli. The conditions noted are these: 20 hours. The procedure: The mature biofilm was treated with FeTyr at concentrations of 100, 150 and 200 μM for 20 hours and compared to a control biofilm that had just been treated with LB medium 30% v/v. […] Mature biofilm was treated with FeDOPA at a concentration of 100 μM for 20 hours and compared to a control biofilm that had just been treated with LB medium 30% v/v.

Test [3] can be described thus: Growth performance of broilers challenged with Campylobacter dirty litter at day 20. The class given is in vivo, chicken (Ross 308 male broilers). The conditions noted are these: treatment groups 3, 5, 6, 7 (FeQ) and 8 (FeTyr). The procedure:
(§1) A study was performed to evaluate growth promotion and reduction of Campylobacter carriage using FeQ and FeTyr in Ross 308 male broilers with 7 treatment groups. Each treatment group comprised four replicates of 10 birds per pen (40 birds/treatment group and 4 pens of 10 birds/treatment group), and there were 2 control groups and 5 test groups. All the test groups and one of the control groups were exposed at day 20 of the trial to dirty litter, which tested positive for Campylobacter. This method was used to provide a more natural method to Campylobacter challenge the birds. Thus there was a positive control where one treatment group was challenged with Campylobacter and one negative control group where the birds were not challenged, and five treatment groups that were all challenged with Campylobacter. The total number of birds used in the 7 treatment groups was 280. Treatment group 1 was a negative control where birds just received the commercial feed, and were not challenged with dirty litter containing Campylobacter. Treatment group 2 was the positive control where the birds received the commercial feed, and were challenged with dirty litter containing Campylobacter at day 20. Treatment group 3 received 0.22 g/L of FeQ in their drinking water and 0.22 g/Kg FeQ in their feed during the entire trial, and was challenged with dirty litter containing Campylobacter at day 20. Treatment group 5 received 0.22 g/L of FeQ in their drinking water during the entire trial, and was challenged with dirty litter containing Campylobacter at day 20. Treatment group 6 received 0.22 g/kg FeQ in their feed during the entire trial, and was challenged with dirty litter containing Campylobacter at day 20. Treatment group 7 received 0.022 g/L FeQ in their drinking water during the entire trial, and was challenged with dirty litter containing Campylobacter at day 20. Treatment group 8 received 0.02 g/L FeTyr in their drinking water during the entire trial, and was challenged with dirty litter containing Campylobacter at day 20. The FeTyr was pre-dissolved in DMSO, and diluted to provide a solution of 0.02 g/L of FeTyr in water. (An additional treatment group 4 was terminated due to solubility issues.) […]
The feeding program is show in Table 4. […] All birds were weighed individually and feed weigh backs recorded per pen at day 0, 11, 21, 24 and 42 days.
In order to minimize risk of cross-contamination, standard industry biosecurity measures were used including: disinfecting boots, changing overshoes and gloves between pens/treatments, entering Campylobacter negative pens before entering Campylobacter positive pens, and leaving adjacent pens empty. Daily health, culls, and mortality were recorded. All bird weights were recorded at 0, 11, 21, 24, 33 and 42 days. […]

A further test deals with EPEC-pgA^++. Nature of the test: Crystal violet assay of disruption of a mature biofilm. The conditions noted are these: FeTyr 100, 150 and 200 μM; 72 hours. The class given is cell-based, Escherichia coli. How it is done:
A mature biofilm formed by EPEC-pgA^++ was treated with FeTyr for 24, 48 and 72 hours at FeTyr concentrations of 100 μM, 150 μM and 200 μM and the presence of the biofilm after these times was compared to an untreated biofilm (labeled “Control”) using a crystal violet assay. The color of the control wells was more intense in color at 72 hours than those that were treated with FeTyr at 100, 150 and 200 μM for 72 hours.

The test system of another test is Campylobacter. Nature of the test: Campylobacter carriage in chickens (cfu/g of droppings and caeca samples). The class given is in vivo. The conditions noted are these: treatment groups 3, 5, 6, 7 (FeQ) and 8 (FeTyr), days 0-42; dirty litter challenge. The procedure: as §1, with “20.” for “20. Treatment group 7 received 0.022 g/L FeQ in their drinking water during the entire trial, and was challenged with dirty litter containing Campylobacter at day 20. Treatment group 8 received 0.02 g/L FeTyr in their drinking water during the entire trial, and was challenged with dirty litter containing Campylobacter at day 20. The FeTyr was pre-dissolved in DMSO, and diluted to provide a solution of 0.02 g/L of FeTyr in water. (An additional treatment group 4 was terminated due to solubility issues.)”
Prior to challenging the chickens with dirty litter containing Campylobacter at day 20, each pen was tested for Campylobacter using cloacal swabs. […] Samples were analyzed for blood chemistry, including analysis for alkaline phosphatase, aspartate amino transferase, alanine amino transferase, gamma-glutamyl transferase, lactate dehydrogenase, total protein, albumin, globulin, amylase and glucose.

Test [4] concerns Psuedomonas aeruginosa (PAO1N). Nature of the test: Growth (OD600) in LB with Amikacin, tolerance to antibiotic. The class given is cell-based, Pseudomonas aeruginosa. As to conditions: 34, 100, 200 and 340 μM of FeQ or FePhe; Amikacin 10 µg/ml; 17.5 hours at 37° C. The procedure: (§2) To investigate effects upon antibiotic resistance, a laboratory strain of Psuedomonas aeruginosa (PAO1N) and a mixed population of clinical isolates (PAO Mixed) were incubated in Luria-Bertani (LB) media alone, or with different concentrations (34 μM, 100 μM, 200 μM and 340 μM) of FeQ or FePhe.
(§3) Each of the different media, bar one control, contained 10 µg/ml of the aminoglycoside antibiotic Amikacin.
(§4) 10 μl of the bacterial strains were added into each well of a 96-well micro-titer plate, before 290 μl of the relevant media was added to wells. Each different condition was repeated in sextuplicate.
(§5) The plate was incubated at 37° C. within a micro-titer plate reader for 17.5 hours, with the OD600 read every 30 minutes.

Test [5] deals with mixed population of clinical isolates (PAO Mixed). Described as above. The class given is cell-based, Pseudomonas aeruginosa. The conditions noted are these: 34, 100, 200 and 340 μM of FeQ or FePhe; Amikacin 10 µg/ml; 17.5 hours at 37° C. How it is done: as §2, §3, §4, §5

Consider 3 molecules from US10327423B2, “Antimicrobial compounds and compositions, and uses thereof” (Akeso Biomedical, Inc., priority 2014, dated 2019).

Entries after “also recorded” stand apart in the source; their conditions may differ.

Take `O=C1[O][Fe]23([NH]C1Cc1ccc(O)c(O)c1)([NH]C(Cc1ccc(O)c(O)c1)C(=O)[O]2)[NH]C(Cc1ccc(O)c(O)c1)C(=O)[O]3` [FeDOPA, a complex of L-DOPA with Fe III (3,4 dihydrophenylalanine)]: the “rate of growth relative to gentamicin alone” value in test [1] (gentamicin 1.25 μM and FeDOPA 130, 160, 200 μM) is on record as “inhibited”. Also, the “attachment of EPEC cells to plastic well surface and biofilm formation (crystal violet, O.D. 570 nm)” value in test [2] is “inhibited”. In addition, the “dispersion of mature biofilm” value in the test on EPEC-AcsrA (FeDOPA 100 μM) is “dispersed the biofilm”.

In the case of `O=C1[O][Fe]23([NH]C1Cc1ccc(O)cc1)([NH]C(Cc1ccc(O)cc1)C(=O)[O]2)[NH]C(Cc1ccc(O)cc1)C(=O)[O]3` [FeTyr, a complex of L-tyrosine with Fe III], in test [1] (Fe-Tyr 100 μM alone), the “rate of growth (growth curve)” value was “comparable to the control”. Also, the “rate of growth relative to gentamicin alone” value in test [1] (gentamicin 1.25 μM and Fe-Tyr 1.25 μM) is “loses its resistance; also recorded: inhibited”. For the same molecule, in test [3], the “ABW at day 42 versus positive control (challenged, untreated)” value is reported as “performed better than the positive control” and the “MFCR at day 42 versus positive control (challenged, untreated)” value is recorded as “performed better than the positive control”. For the same molecule, the “optical absorbance of crystal violet at 570 nm of remaining mature biofilm versus untreated” value in the test with EPEC-pgA^++ is recorded as “significantly lower optical absorbance”. For the same molecule, the “average Campylobacter cfu/g of caeca samples at day 42 versus positive control” value in the test on Campylobacter was “lower levels of Campylobacter in their caeca; also recorded: performed better than the positive control”. The “dispersion of mature biofilm” value in the test with EPEC-AcsrA (FeTyr 100, 150 and 200 μM) is reported as “biofilm dispersion increased”.

As for “A complex of L-phenylalanine with Fe III [Fe-Phe]”, the “tolerance to the aminoglycoside Amikacin (OD600 growth)” value in test [4] and in test [5] was “reducing tolerance” throughout.
